Source: patent US20040005342A1, “Topical administration of ascorbic acid to reinforce the cohesion of the dermo-epidermal junction” (SOCIETE L'OREAL S.A., priority 2002, published 2004)

How the values were obtained:
Type in all cases: cell-based, human
tenascin = assay: Immunofluorescence of tenascin in reconstructed skin sections
collagen VII = assay: Immunofluorescence of collagen VII in reconstructed skin sections
[1] = test system: fibroblasts in the lattice of reconstructed skin; assay: Reconstructed skin grown with vitamin C in the culture medium: number of fibroblasts; details: vitamin C in culture medium throughout the phase of emersion
From the text: This increase is associated with a greater production of certain proteins of the extracellular matrix, in particular in the sub-epidermal zone. The most spectacular results are found in this region of the dermo-epidermal junction, with a more perpendicular arrangement of the basal keratinocytes and an increased synthesis of major components of the basal membrane, for instance tenascin and collagen VII.

[2] = reconstructed skin, vitamin CPMg 2.8′10^−4 M, 7-day emersion phase, × control

O=C1O[C@H]([C@@H](O)CO)C([O-])=C1OP(=O)([O-])[O-].O=C1O[C@H]([C@@H](O)CO)C([O-])=C1OP(=O)([O-])[O-].[Mg+2].[Mg+2].[Mg+2] [Vitamin C, magnesium ascorbyl phosphate]
Intensity and thickness of the zone of tenascin fluorescence (dermo-epidermal junction and superficial dermis), versus sample without vitamin C (tenascin; microscopic observation, FIG. 2): much larger
Tenascin fluorescence intensity/unit of length (tenascin; reconstructed skin, vitamin CPMg 2.8′10^−4 M during 7-day emersion phase, image analysis, standardized to identical length of dermo-epidermal junction, control 6.4): 11.54 arbitrary units
Tenascin fluorescence intensity/unit of length, factor versus control (tenascin; [2]): 1.80
Intensity and thickness of the zone of collagen VII fluorescence at the dermo-epidermal junction, versus sample without vitamin C (collagen VII; microscopic observation, FIG. 1): much greater
Collagen VII fluorescence intensity/unit of length (collagen VII; reconstructed skin, vitamin CPMg 2.8′10^−4 M during 7-day emersion phase, image analysis, normalized to identical length of dermo-epidermal junction, control 1.35): 2.50 arbitrary units
Collagen VII fluorescence intensity/unit of length, factor versus control (collagen VII; [2]): 1.85
Number of fibroblasts in the lattice [1]: very large increase
